Measured values from ChEMBL document CHEMBL4364278, “2,7-naphthyridinone-based MET kinase inhibitors: A promising novel scaffold for antitumor drug development” (Eur J Med Chem, 2019).

Experiments:
[1] = biological target: Aurora kinase B (Homo sapiens) (UniProt Q96GD4); assay: Inhibition of AuroraB (unknown origin) at 1 uM relative to control
[2] = Fraction unbound in mouse plasma at 2 uM; format: ADME, cell-free
U-87 MG [3] = assay: animal or person; conditions: Mus musculus, po, 504 h, read-out: TGI
Description: Antitumour activity against human U87MG cells xenografted in athymic nude mouse assessed as tumor growth inhibition at 25 mg/kg, po administrated for 3 weeks by caliper method relative to control

U-87 MG [4] = assay: Antitumour activity against human U87MG cells xenografted in orally dosed athymic nude mouse assessed as inhibition in tumor growth administrated for 3 weeks by caliper method; format: functional; conditions: for inhibition: U-87MG ATCC; for minimal effective dose: po, 504 h, read-out: MED
[5] = biological target: Discoidin domain-containing receptor 2 (Homo sapiens) (UniProt Q16832); assay: Inhibition of DDR2 (unknown origin) at 1 uM relative to control
[6] = Clearance in rat at 2.5 mg/kg, iv; format: ADME, organism-based; conditions: in vivo
[7] = biological target: BDNF/NT-3 growth factors receptor (Homo sapiens) (UniProt Q16620); assay: Inhibition of TRKB (unknown origin) at 1 uM relative to control
[8] = biological target: Proto-oncogene tyrosine-protein kinase receptor Ret (Homo sapiens) (UniProt P07949); assay: Inhibition of RET (unknown origin) at 1 uM relative to control
[9] = biological target: T1, Hepatocyte growth factor receptor (Homo sapiens, UniProt P08581)
Description: Inhibition of HGF-induced cMET autophosphorylation in human MKN45 cells preincubated for 1 hr followed by HGF addition and measured after 10 mins by ELISA

U-87 MG [10] = assay: Antitumour activity against human U87MG cells xenografted in athymic nude mouse assessed as tumor growth inhibition at 50 mg/kg, po administrated for 3 weeks by caliper method relative to control; format: functional, U-87MG ATCC; conditions: 504 h, read-out: TGI
[11] = biological target: Dual specificity tyrosine-phosphorylation-regulated kinase 2 (Homo sapiens) (UniProt Q92630); assay: Inhibition of DYRK2 (unknown origin) at 1 uM relative to control
[12] = AUC (0 to infinity) in rat at 10 mg/kg, po; format: ADME, organism-based; design: dose 10 mg/kg, route oral, time infinity; conditions: in vivo
[13] = biological target: High affinity nerve growth factor receptor (Homo sapiens) (UniProt P04629); assay: Inhibition of TRKA (unknown origin) at 1 uM relative to control
[14] = biological target: Macrophage colony-stimulating factor 1 receptor (Homo sapiens) (UniProt P07333); assay: Inhibition of FMS (unknown origin) at 1 uM relative to control
[15] = Half life in rat at 2.5 mg/kg, iv; format: ADME, organism-based; conditions: in vivo
[16] = biological target: Tyrosine-protein kinase Fgr (Homo sapiens) (UniProt P09769); assay: Inhibition of FGR (unknown origin) at 1 uM relative to control
[17] = Cmax in rat at 10 mg/kg, po; format: ADME, organism-based; design: dose 10 mg/kg, route oral; conditions: in vivo
[18] = Fraction unbound in human plasma at 2 uM; format: ADME, cell-free
[19] = biological target: Tyrosine-protein kinase receptor UFO (Homo sapiens) (UniProt P30530); assay: Inhibition of AXL (unknown origin) at 1 uM relative to control
[20] = biological target: Tyrosine-protein kinase Mer (Homo sapiens) (UniProt Q12866); assay: Inhibition of MER (unknown origin) at 1 uM relative to control
[21] = Half life in rat at 10 mg/kg, po; format: ADME, organism-based; conditions: in vivo
[22] = biological target: Vascular endothelial growth factor receptor 3 (Homo sapiens) (UniProt P35916); assay: Inhibition of FLT4 (unknown origin) at 1 uM relative to control
[23] = Fraction unbound in rat plasma at 2 uM; format: ADME, cell-free
[24] = biological target: Ephrin type-B receptor 4 (Homo sapiens) (UniProt P54760); assay: Inhibition of EphB4 (unknown origin) at 1 uM relative to control
HT-29 [25] = assay: Antitumour activity against human HT-29 cells xenografted in athymic nude mouse assessed as tumor growth inhibition at 25 mg/kg, po administrated for 3 weeks by caliper method relative to control; format: functional; conditions: HT-29, po, 504 h, read-out: TGI
U-87 MG [26] = assay: Antitumour activity against human U87MG cells xenografted in athymic nude mouse assessed as tumor growth inhibition at 12.5 mg/kg, po administrated for 3 weeks by caliper method relative to control; format: functional, U-87MG ATCC; conditions: 504 h, read-out: TGI
[27] = biological target: Tyrosine-protein kinase Lck (Homo sapiens) (UniProt P06239); assay: Inhibition of LCK (unknown origin) at 1 uM relative to control
[28] = biological target: Tyrosine-protein kinase Lyn (Homo sapiens) (UniProt P07948); assay: Inhibition of LYN (unknown origin) at 1 uM relative to control
[29] = biological target: Proto-oncogene tyrosine-protein kinase Src (Homo sapiens) (UniProt P12931); assay: Inhibition of SRC (1 to 530 residues)(unknown origin) at 1 uM relative to control
[30] = biological target: cAMP-dependent protein kinase catalytic subunit alpha (Homo sapiens) (UniProt P17612); assay: Inhibition of PKA (unknown origin) at 1 uM relative to control
[31] = Tmax in rat at 10 mg/kg, po; format: ADME, organism-based; conditions: in vivo
[32] = Oral bioavailability in rat at 10 mg/kg; format: ADME, organism-based; conditions: in vivo
[33] = AUC (0 to infinity) in rat at 2.5 mg/kg, iv; format: ADME, organism-based; design: dose 2.5 mg/kg, route intravenous, time infinity; conditions: in vivo
[34] = biological target: Proto-oncogene tyrosine-protein kinase ROS (Homo sapiens) (UniProt P08922); assay: Inhibition of ROS (unknown origin) at 1 uM relative to control
[35] = Volume of distribution in rat at 2.5 mg/kg, iv; format: ADME, organism-based; conditions: in vivo
[36] = biological target: Vascular endothelial growth factor receptor 1 (Homo sapiens) (UniProt P17948); assay: Inhibition of FLT1 (unknown origin) at 1 uM relative to control
[37] = biological target: Tyrosine-protein kinase receptor TYRO3 (Homo sapiens) (UniProt Q06418); assay: Inhibition of RSE (unknown origin) at 1 uM relative to control
[38] = biological target: Ephrin type-A receptor 3 (Homo sapiens) (UniProt P29320); assay: Inhibition of EphA3 (unknown origin) at 1 uM relative to control
[39] = biological target: Tyrosine-protein kinase Fes/Fps (Homo sapiens) (UniProt P07332); assay: Inhibition of FES (unknown origin) at 1 uM relative to control
HT-29 [40] = assay: Antitumour activity against human HT-29 cells xenografted in athymic nude mouse assessed as tumor growth inhibition at 50 mg/kg, po administrated for 3 weeks by caliper method relative to control; format: functional; conditions: HT-29, po, 504 h, read-out: TGI
[41] = biological target: Macrophage-stimulating protein receptor (Homo sapiens) (UniProt Q04912); assay: Inhibition of RON (unknown origin) at 1 uM relative to control
U-87 MG [42] = assay: Antitumour activity against human U87MG cells xenografted in athymic nude mouse assessed as tumor growth inhibition at 40 mg/kg, po administrated for 3 weeks by caliper method relative to control; conditions: 504 h, read-out: TGI
[43] = biological target: Vascular endothelial growth factor receptor 2 (Homo sapiens, UniProt P35968)
Description: Inhibition of recombinant human His-tagged VEGFR2 cytoplasmic domain expressed in baculovirus expression system using biotin as substrate preincubated for 5 mins followed by substrate addition and measured after 30 to 60 mins by HTRF assay

[44] = biological target: T1, Hepatocyte growth factor receptor; remark: listed apart in the source
Description: Inhibition of human recombinant His-tagged cMET cytoplasmic domain expressed in baculovirus expression system using biotin as substrate preincubated for 5 mins followed by substrate addition and measured after 30 to 60 mins by HTRF assay

T1 sequence (P08581 whole entry): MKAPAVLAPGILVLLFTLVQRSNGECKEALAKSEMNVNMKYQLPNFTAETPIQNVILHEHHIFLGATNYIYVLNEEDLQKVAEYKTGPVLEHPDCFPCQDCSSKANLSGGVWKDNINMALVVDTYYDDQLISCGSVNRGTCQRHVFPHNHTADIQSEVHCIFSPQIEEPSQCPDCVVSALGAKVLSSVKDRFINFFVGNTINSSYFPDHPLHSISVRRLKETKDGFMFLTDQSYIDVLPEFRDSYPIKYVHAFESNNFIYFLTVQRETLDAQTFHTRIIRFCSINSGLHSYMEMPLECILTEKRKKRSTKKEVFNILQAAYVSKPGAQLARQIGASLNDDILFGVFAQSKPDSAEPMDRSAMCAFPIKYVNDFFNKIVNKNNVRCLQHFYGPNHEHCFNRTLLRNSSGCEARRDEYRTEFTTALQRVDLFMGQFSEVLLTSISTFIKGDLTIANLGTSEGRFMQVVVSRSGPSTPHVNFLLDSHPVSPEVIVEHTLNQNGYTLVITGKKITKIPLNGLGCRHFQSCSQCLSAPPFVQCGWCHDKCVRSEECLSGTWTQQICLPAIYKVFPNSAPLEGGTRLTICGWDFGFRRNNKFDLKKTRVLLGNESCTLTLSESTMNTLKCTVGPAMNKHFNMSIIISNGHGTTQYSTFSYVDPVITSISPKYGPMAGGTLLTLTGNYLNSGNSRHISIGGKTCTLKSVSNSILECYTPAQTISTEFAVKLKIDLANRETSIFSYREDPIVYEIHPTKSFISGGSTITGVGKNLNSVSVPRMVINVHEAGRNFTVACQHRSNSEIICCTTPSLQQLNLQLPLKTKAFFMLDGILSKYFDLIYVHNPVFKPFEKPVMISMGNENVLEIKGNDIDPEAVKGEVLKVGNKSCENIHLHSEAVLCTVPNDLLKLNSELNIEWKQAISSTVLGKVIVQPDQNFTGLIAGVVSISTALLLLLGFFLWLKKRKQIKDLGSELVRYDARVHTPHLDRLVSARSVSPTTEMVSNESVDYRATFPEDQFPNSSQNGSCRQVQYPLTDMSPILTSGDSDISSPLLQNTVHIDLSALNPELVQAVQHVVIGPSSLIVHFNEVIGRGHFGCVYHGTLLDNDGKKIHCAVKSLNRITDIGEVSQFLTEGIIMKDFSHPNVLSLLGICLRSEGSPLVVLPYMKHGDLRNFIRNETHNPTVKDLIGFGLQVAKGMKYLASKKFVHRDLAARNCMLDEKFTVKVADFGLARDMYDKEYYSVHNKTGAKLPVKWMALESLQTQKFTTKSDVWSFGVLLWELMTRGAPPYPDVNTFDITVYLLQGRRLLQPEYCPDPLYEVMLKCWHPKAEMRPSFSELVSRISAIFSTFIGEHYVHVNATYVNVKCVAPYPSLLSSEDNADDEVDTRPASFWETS
Tyrosine-protein kinase receptor TYRO3 (Homo sapiens), sequence (Q06418 whole entry): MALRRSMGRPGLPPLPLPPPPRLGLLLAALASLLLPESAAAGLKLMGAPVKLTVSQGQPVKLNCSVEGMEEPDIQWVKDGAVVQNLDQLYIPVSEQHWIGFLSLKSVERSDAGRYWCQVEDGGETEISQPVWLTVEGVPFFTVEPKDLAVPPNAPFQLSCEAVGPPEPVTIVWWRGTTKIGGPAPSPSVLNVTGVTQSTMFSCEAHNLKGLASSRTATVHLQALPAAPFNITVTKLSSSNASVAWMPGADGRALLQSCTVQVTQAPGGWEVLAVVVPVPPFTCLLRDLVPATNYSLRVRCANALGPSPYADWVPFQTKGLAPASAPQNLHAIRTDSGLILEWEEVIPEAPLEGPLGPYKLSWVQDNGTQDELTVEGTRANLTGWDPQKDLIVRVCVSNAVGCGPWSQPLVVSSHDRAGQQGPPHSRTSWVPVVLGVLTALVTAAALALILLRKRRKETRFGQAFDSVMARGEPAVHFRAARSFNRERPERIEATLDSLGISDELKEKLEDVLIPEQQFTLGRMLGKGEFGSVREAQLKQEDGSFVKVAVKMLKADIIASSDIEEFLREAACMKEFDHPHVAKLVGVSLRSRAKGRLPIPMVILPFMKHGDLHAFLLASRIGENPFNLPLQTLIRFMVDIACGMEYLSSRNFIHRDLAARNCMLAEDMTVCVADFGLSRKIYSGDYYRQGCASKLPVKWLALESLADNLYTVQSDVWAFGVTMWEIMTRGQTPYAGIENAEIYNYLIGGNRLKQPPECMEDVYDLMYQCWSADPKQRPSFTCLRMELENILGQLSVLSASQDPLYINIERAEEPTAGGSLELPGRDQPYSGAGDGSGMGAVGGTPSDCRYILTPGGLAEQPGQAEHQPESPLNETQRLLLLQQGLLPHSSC
Discoidin domain-containing receptor 2 (Homo sapiens), sequence (Q16832 whole entry, the tested form may be a part): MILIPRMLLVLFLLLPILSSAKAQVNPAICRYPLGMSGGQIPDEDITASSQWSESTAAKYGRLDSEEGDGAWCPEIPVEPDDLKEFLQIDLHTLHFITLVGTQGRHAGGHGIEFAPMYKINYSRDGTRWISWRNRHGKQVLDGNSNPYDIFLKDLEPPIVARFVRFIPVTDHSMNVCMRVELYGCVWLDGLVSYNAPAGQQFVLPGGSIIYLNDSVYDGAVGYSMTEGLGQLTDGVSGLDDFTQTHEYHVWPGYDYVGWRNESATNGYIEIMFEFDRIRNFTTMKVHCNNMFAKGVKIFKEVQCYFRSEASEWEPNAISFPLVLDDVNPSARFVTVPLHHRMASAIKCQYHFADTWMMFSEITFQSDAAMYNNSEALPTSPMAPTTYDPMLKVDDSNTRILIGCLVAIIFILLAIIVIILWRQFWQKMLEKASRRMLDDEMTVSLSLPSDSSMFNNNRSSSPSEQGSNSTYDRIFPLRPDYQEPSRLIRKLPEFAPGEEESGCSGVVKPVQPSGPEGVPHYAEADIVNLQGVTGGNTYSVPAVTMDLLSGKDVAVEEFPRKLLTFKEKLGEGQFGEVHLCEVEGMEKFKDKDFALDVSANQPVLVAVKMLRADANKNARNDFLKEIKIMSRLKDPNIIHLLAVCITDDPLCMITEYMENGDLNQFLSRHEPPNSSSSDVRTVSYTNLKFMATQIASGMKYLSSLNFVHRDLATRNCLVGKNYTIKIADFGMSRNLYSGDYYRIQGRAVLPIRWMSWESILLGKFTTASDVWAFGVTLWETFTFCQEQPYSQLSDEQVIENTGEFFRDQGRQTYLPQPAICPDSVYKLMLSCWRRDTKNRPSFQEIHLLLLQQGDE
Proto-oncogene tyrosine-protein kinase Src (Homo sapiens), sequence (P12931 2-536 limits assumed): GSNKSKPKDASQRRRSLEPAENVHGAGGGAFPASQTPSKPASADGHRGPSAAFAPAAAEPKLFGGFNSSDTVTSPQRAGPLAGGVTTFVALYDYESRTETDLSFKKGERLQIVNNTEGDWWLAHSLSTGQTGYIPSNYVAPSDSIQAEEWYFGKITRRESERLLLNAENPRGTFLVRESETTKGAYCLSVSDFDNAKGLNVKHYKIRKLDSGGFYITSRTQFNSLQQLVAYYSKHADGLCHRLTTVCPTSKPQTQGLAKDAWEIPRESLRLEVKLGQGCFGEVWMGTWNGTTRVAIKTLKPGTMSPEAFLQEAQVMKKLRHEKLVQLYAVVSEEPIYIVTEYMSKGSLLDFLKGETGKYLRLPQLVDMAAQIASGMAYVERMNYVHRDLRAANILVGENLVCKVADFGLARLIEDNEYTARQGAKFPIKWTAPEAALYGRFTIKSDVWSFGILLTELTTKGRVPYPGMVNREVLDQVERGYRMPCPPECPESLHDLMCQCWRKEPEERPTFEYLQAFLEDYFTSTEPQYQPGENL
Proto-oncogene tyrosine-protein kinase receptor Ret (Homo sapiens), sequence (P07949 whole entry): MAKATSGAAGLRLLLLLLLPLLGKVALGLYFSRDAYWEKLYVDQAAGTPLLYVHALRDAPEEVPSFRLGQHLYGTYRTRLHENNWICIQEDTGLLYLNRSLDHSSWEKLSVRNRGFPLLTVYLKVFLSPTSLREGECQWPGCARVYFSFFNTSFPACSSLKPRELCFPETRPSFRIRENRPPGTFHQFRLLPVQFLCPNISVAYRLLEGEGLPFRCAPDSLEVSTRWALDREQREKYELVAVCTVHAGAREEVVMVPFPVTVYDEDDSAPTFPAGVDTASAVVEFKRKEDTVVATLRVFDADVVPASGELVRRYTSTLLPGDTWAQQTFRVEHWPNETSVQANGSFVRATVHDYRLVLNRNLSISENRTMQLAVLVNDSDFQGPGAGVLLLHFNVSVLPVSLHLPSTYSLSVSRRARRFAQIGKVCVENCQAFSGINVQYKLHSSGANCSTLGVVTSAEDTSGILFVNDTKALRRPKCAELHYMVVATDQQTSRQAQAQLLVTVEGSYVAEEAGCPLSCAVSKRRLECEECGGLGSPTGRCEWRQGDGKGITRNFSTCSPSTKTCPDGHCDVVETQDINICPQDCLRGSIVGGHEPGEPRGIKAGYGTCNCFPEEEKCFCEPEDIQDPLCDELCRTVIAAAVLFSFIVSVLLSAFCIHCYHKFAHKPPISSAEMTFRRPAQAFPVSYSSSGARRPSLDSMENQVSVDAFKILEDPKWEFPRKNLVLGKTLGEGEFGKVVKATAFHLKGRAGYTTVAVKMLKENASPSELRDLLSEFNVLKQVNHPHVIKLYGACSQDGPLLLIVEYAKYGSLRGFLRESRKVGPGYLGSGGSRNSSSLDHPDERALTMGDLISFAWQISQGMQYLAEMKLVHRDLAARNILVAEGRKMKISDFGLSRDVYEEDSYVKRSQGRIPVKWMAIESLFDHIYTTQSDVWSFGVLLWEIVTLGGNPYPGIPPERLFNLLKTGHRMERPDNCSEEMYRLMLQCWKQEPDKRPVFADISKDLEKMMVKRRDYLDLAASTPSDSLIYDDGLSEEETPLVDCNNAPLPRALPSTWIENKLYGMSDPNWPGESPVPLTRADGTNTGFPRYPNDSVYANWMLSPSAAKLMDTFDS

Nc1nccc(Oc2ccc(Nc3nccc4ccn(-c5ccc(F)cc5)c(=O)c34)cc2F)c1Cl
inhibition [1]: 44%
Fu [2]: < 0.5%
inhibition in vivo at 25 mg/kg (U-87 MG [3]): 100%
inhibition (U-87 MG [4]): Dose-dependent effect
minimal effective dose (U-87 MG [4]): 12.5 mg/kg
inhibition [5]: 98%
clearance [6]: 13.3 mL/min/kg
inhibition [7]: 100%
inhibition [8]: 96%
IC50 [9]: 69 nM
inhibition in vivo at 50 mg/kg (U-87 MG [10]): 114%
inhibition [11]: -9%
AUC(0-inf) [12]: 6700 ng·h/mL
inhibition [13]: 99%
inhibition [14]: 88%
half-life [15]: 3.2 h
inhibition [16]: 62%
Cmax [17]: 1600 ng/mL
Fu [18]: < 0.5%
inhibition [19]: 97%
inhibition [20]: 100%
half-life [21]: 5.1 h
inhibition [22]: 100%
Fu [23]: < 0.5%
inhibition [24]: 10%
inhibition in vivo at 25 mg/kg (HT-29 [25]): 50%
inhibition in vivo at 12.5 mg/kg (U-87 MG [26]): 53%
inhibition [27]: 75%
inhibition [28]: 43%
inhibition [29]: 35%
inhibition [30]: 43%
Tmax [31]: 1.2 h
bioavailability [32]: 54%
AUC(0-inf) [33]: 3100 ng·h/mL
inhibition [34]: 87%
Vd [35]: 3.6 L/kg
inhibition [36]: 95%
inhibition [37]: 83%
inhibition [38]: 38%
inhibition [39]: 10%
inhibition in vivo at 50 mg/kg (HT-29 [40]): 95%
inhibition [41]: 100%

Cc1cc2ccnc(Nc3ccc(Oc4ccnc(N)c4Cl)c(F)c3)c2c(=O)n1-c1ccc(F)cc1
inhibition in vivo at 25 mg/kg (U-87 MG [3]): 44%
inhibition (U-87 MG [4]): Dose-dependent effect
minimal effective dose (U-87 MG [4]): 32.5 mg/kg
CL [6]: 103 mL/min/kg
AUC(0-inf) [12]: 21200 ng·h/mL
half-life [15]: 7 h
Cmax [17]: 3700 ng/mL
half-life [21]: 11 h
Tmax [31]: 2.3 h
bioavailability [32]: 51%
AUC [33]: 10500 ng·h/mL
Vd [35]: 2.4 L/kg
inhibition in vivo at 40 mg/kg (U-87 MG [42]): 72%

CCOc1ccn(-c2ccc(F)cc2)c(=O)c1C(=O)Nc1ccc(Oc2ccnc(N)c2Cl)c(F)c1 [BMS-777607]
inhibition in vivo at 25 mg/kg (U-87 MG [3]): 98%
IC50 [9]: 46.6 nM
IC50 [43]: 139 nM
inhibition in vivo at 25 mg/kg (HT-29 [25]): 15%
IC50 [44]: 7.6 nM

Cc1cc2ccnc(Nc3ccc(Oc4ccnc(N)c4Cl)c(F)c3)c2c(=O)n1-c1ccc(OC(F)(F)F)cc1
IC50 [44]: > 1000 nM

Cc1cc2ccnc(Nc3ccc(Oc4ccnc(N)c4I)c(F)c3)c2c(=O)n1-c1ccc(F)cc1
clearance [6]: 6.67 mL/min/kg
AUC(0-inf) [12]: 25700 ng·h/mL
half-life [15]: 4.2 h
Cmax [17]: 2700 ng/mL
half-life [21]: 4.9 h
Tmax [31]: 1.5 h
bioavailability [32]: 49%
AUC(0-inf) [33]: 13100 ng·h/mL
Vd [35]: 2.9 L/kg
